Assay results: article PMC4747952, “Development of TASP0410457 (TASP457), a novel dihydroquinolinone derivative as a PET radioligand for central histamine H3 receptors” (EJNMMI Research, 2016)

Columns and labels:
H3Rs [1] = test: In vitro autoradiography, monkey brain sections; type: binding, rhesus monkey; settings: in the presence of 10 μM of unlabelled TASP0410457 or ciproxifan
Method: Twenty-micrometer-thick sagittal rat and monkey brain sections were incubated in an autoradiography buffer containing 5 nM [^11C]TASP0410457 as described in Additional file 1: Supplemental methods. The binding was also performed in the presence of 10 μM of unlabeled TASP0410457, thioperamide, or ciproxifan for the rat sections and 10 μM of TASP0410457 or ciproxifan for the monkey sections to assess the specific radioligand binding.
(25:75) at a flow rate of 1 mL/min. A representative chromatogram of [11C]TASP0390136 is shown in […]
Twenty-micrometer-thick sagittal rat brain sections were pre-incubated with autoradiography buffer (50 mM Tris containing 120 mM NaCl, 2 mM KCl, 1 mM MgCl2, and 1 mM CaCl2, pH7.4) for 30 min, then incubated in the autoradiography buffer containing 5 nM [11C]TASP0410457 at 25°C for 1 h. The sections were washed two times with ice-cold autoradiography buffer for 5 min, rinsed with ice-cold water for 10 s, and then quickly dried. The radioactivity retained on the sections was determined using a BAS imaging plate and the BAS5000 system (GE Healthcare, Piscataway, NJ). For a blocking study, brain slices were reacted with [11C]TASP0410457 in the presence of […] of TASP0410457, thioperamide, or ciproxifan.
Similarly, autoradiography using […] sagittal rhesus monkey brain sections was conducted. […]

H3Rs [2] = test: PET in anesthetized rhesus monkeys with arterial blood sampling; type: in vivo, rhesus monkey; settings: for V T, Logan graphical analysis, Scan duration 60 min / V T, Logan graphical analysis, Scan duration 70 min / V T, Logan graphical analysis, Scan duration 80 min / V T, Logan graphical analysis, Scan duration 90 min / V T, One-tissue compartment model, Scan duration 90 min: Mean ± S.D., n = 3
Method: For a detailed pharmacokinetic PET study using [^11C]TASP0410457 with arterial blood sampling, three male rhesus monkeys weighing 5–7 kg were scanned with the SHR-7700 PET camera. The monkeys were initially anesthetized with an intramuscular injection of ketamine (10 mg/kg), intubated, and subsequently kept anesthetized with 1–2 % isoflurane. Electrocardiogram and blood oxygen saturation levels were monitored, and body temperature was maintained by a heating pad throughout the experiment. Arterial blood (1–2.5 mL) was collected from the saphenous artery at 10, 20, 30, 40, 50, 60, and 90 s and at 2, 3, 4, 5, 10, 15, 30, 60, and 90 min after the intravenous injection of [^11C]TASP0410457 (injected radioactivity, 159 ± 30 MBq; mass dose, 1.2 ± 0.3 μg; mean ± S.D., n = 3).
The arterial blood was centrifuged at 20,000×g for 3 min at 4 °C to separate the plasma. Radioactivity in total blood and plasma was determined using a 1480 WIZARD gamma counter (PerkinElmer), and was decay-corrected to the injection time. Arterial plasma collected at 1, 5, 15, 30, 60, and 90 min was used to analyze radioactive metabolites of [^11C]TASP0410457. Two hundred microliters of plasma was mixed with 200 μL of ice-cold acetonitrile, and the mixtures were centrifuged at 20,000×g for 3 min at 4 °C. Fifty to […] of the resultant supernatants were separated using HPLC (JASCO, Tokyo, Japan) on an Atlantis T3 column (4.6 × 50 mm, Waters, Milford, MA) with a mobile phase consisting of 10 mM of ammonium acetate/acetonitrile (68:32) at a flow rate of 1 mL/min. The fraction of unmetabolized [^11C]TASP0410457 was determined by measuring the areas of the HPLC peaks corresponding to [^11C]TASP0410457 and its radiometabolites.
Emission scan images were reconstructed using a 4.0-mm Colsher filter. ROIs were placed on the anterior cingulate cortex, striatum, thalamus, hippocampus, cerebellum, frontal cortex, temporal cortex, occipital cortex, and pons-medulla using PMOD software, with reference to an MRI template as described previously. Tissue TACs were generated as in the rat PET image analysis.
For PET study in anesthetized monkeys, metabolite-corrected plasma TACs were used as arterial input functions. The regional total volume of distribution (VT) was estimated by Logan’s graphical plot and one-tissue compartment model using PMOD software.

[3] = Anterior cingulate cortex, monkey brain

[11CH3]Oc1ccc(N2C(=O)CCc3cc(OC4CCN(C5CCC5)CC4)ccc32)cn1 [[^11C]TASP0410457]
binding in the monkey cerebellum and brainstem under blockade (H3Rs [1]): noticeably decreased | V T, Logan graphical analysis, Scan duration 60 min (H3Rs [2]; [3]): 18.4 ± 2.7 mL/cm^3 | V T, Logan graphical analysis, Scan duration 70 min (H3Rs [2]; [3]): 18.6 ± 2.8 mL/cm^3 | V T, Logan graphical analysis, Scan duration 80 min (H3Rs [2]; [3]): 19.1 ± 3.2 mL/cm^3 | V T, Logan graphical analysis, Scan duration 90 min (H3Rs [2]; [3]): 19.5 ± 3.4 mL/cm^3 | V T, One-tissue compartment model, Scan duration 90 min (H3Rs [2]; [3]): 20.3 ± 3.3 mL/cm^3 | V T, Logan graphical analysis, Scan duration 60 min (H3Rs [2]; Cerebellum, monkey brain): 12.1 ± 1.2 mL/cm^3 | V T, Logan graphical analysis, Scan duration 70 min (H3Rs [2]; Cerebellum, monkey brain): 12.4 ± 1.3 mL/cm^3 | V T, Logan graphical analysis, Scan duration 80 min (H3Rs [2]; Cerebellum, monkey brain): 12.7 ± 1.5 mL/cm^3 | V T, Logan graphical analysis, Scan duration 90 min (H3Rs [2]; Cerebellum, monkey brain): 13.0 ± 1.7 mL/cm^3 | V T, One-tissue compartment model, Scan duration 90 min (H3Rs [2]; Cerebellum, monkey brain): 12.8 ± 1.7 mL/cm^3 | V T, Logan graphical analysis, Scan duration 60 min (H3Rs [2]; Frontal cortex, monkey brain): 12.3 ± 1.6 mL/cm^3 | V T, Logan graphical analysis, Scan duration 70 min (H3Rs [2]; Frontal cortex, monkey brain): 12.5 ± 1.7 mL/cm^3 | V T, Logan graphical analysis, Scan duration 80 min (H3Rs [2]; Frontal cortex, monkey brain): 12.8 ± 1.8 mL/cm^3 | V T, Logan graphical analysis, Scan duration 90 min (H3Rs [2]; Frontal cortex, monkey brain): 13.0 ± 2.0 mL/cm^3 | V T, One-tissue compartment model, Scan duration 90 min (H3Rs [2]; Frontal cortex, monkey brain): 13.4 ± 1.8 mL/cm^3 | V T, Logan graphical analysis, Scan duration 60 min (H3Rs [2]; Hippocampus, monkey brain): 13.0 ± 1.0 mL/cm^3 | V T, Logan graphical analysis, Scan duration 70 min (H3Rs [2]; Hippocampus, monkey brain): 13.2 ± 1.0 mL/cm^3 | V T, Logan graphical analysis, Scan duration 80 min (H3Rs [2]; Hippocampus, monkey brain): 13.6 ± 1.2 mL/cm^3 | V T, Logan graphical analysis, Scan duration 90 min (H3Rs [2]; Hippocampus, monkey brain): 13.9 ± 1.4 mL/cm^3 | V T, One-tissue compartment model, Scan duration 90 min (H3Rs [2]; Hippocampus, monkey brain): 13.9 ± 1.3 mL/cm^3 | V T, Logan graphical analysis, Scan duration 60 min (H3Rs [2]; Occipital cortex, monkey brain): 11.7 ± 1.6 mL/cm^3 | V T, Logan graphical analysis, Scan duration 70 min (H3Rs [2]; Occipital cortex, monkey brain): 11.8 ± 1.6 mL/cm^3 | V T, Logan graphical analysis, Scan duration 80 min (H3Rs [2]; Occipital cortex, monkey brain): 12.0 ± 1.8 mL/cm^3 | V T, Logan graphical analysis, Scan duration 90 min (H3Rs [2]; Occipital cortex, monkey brain): 12.1 ± 1.9 mL/cm^3 | V T, One-tissue compartment model, Scan duration 90 min (H3Rs [2]; Occipital cortex, monkey brain): 12.7 ± 2.0 mL/cm^3 | V T, Logan graphical analysis, Scan duration 60 min (H3Rs [2]; Pons-medulla, monkey brain): 8.5 ± 0.6 mL/cm^3 | V T, Logan graphical analysis, Scan duration 70 min (H3Rs [2]; Pons-medulla, monkey brain): 8.6 ± 0.7 mL/cm^3 | V T, Logan graphical analysis, Scan duration 80 min (H3Rs [2]; Pons-medulla, monkey brain): 8.8 ± 0.7 mL/cm^3 | V T, Logan graphical analysis, Scan duration 90 min (H3Rs [2]; Pons-medulla, monkey brain): 9.1 ± 0.9 mL/cm^3 | V T, One-tissue compartment model, Scan duration 90 min (H3Rs [2]; Pons-medulla, monkey brain): 8.8 ± 0.9 mL/cm^3 | V T, Logan graphical analysis, Scan duration 60 min (H3Rs [2]; Striatum, monkey brain): 21.2 ± 3.0 mL/cm^3 | V T, Logan graphical analysis, Scan duration 70 min (H3Rs [2]; Striatum, monkey brain): 21.5 ± 3.0 mL/cm^3 | V T, Logan graphical analysis, Scan duration 80 min (H3Rs [2]; Striatum, monkey brain): 21.9 ± 3.3 mL/cm^3 | V T, Logan graphical analysis, Scan duration 90 min (H3Rs [2]; Striatum, monkey brain): 22.6 ± 3.8 mL/cm^3 | V T, One-tissue compartment model, Scan duration 90 min (H3Rs [2]; Striatum, monkey brain): 23.2 ± 3.6 mL/cm^3 | V T, Logan graphical analysis, Scan duration 60 min (H3Rs [2]; Temporal cortex, monkey brain): 12.3 ± 1.6 mL/cm^3 | V T, Logan graphical analysis, Scan duration 70 min (H3Rs [2]; Temporal cortex, monkey brain): 12.4 ± 1.7 mL/cm^3 | V T, Logan graphical analysis, Scan duration 80 min (H3Rs [2]; Temporal cortex, monkey brain): 12.5 ± 1.8 mL/cm^3 | V T, Logan graphical analysis, Scan duration 90 min (H3Rs [2]; Temporal cortex, monkey brain): 12.9 ± 2.1 mL/cm^3 | V T, One-tissue compartment model, Scan duration 90 min (H3Rs [2]; Temporal cortex, monkey brain): 13.3 ± 2.1 mL/cm^3 | V T, Logan graphical analysis, Scan duration 60 min (H3Rs [2]; Thalamus, monkey brain): 15.1 ± 1.7 mL/cm^3 | V T, Logan graphical analysis, Scan duration 70 min (H3Rs [2]; Thalamus, monkey brain): 15.4 ± 1.9 mL/cm^3 | V T, Logan graphical analysis, Scan duration 80 min (H3Rs [2]; Thalamus, monkey brain): 15.6 ± 1.9 mL/cm^3 | V T, Logan graphical analysis, Scan duration 90 min (H3Rs [2]; Thalamus, monkey brain): 16.0 ± 2.1 mL/cm^3 | V T, One-tissue compartment model, Scan duration 90 min (H3Rs [2]; Thalamus, monkey brain): 16.1 ± 1.8 mL/cm^3 | time of peak radioligand retention in the striatum (H3Rs [2]; anesthetized monkeys): around 30 min | time of plasma radioactivity peak (H3Rs [2]; anesthetized monkeys, arterial plasma): approximately 1 min | peak SUV in the striatum (H3Rs [2]; anesthetized monkeys, mean ± S.D.): 5.0 ± 0.8 | striatal VT (H3Rs [2]; monkey): exceeded 20 mL/cm^3 | change of VT values when scan endpoint changed between 90 and 60 min (H3Rs [2]; monkey brain, Logan's graphical analysis, relative to values for 90 min): ≤ 7% | fraction of unmetabolized radioligand of total plasma radioactivity (H3Rs [2]; monkey plasma at 90 min): 34%
